Results taken from PubChem BioAssay AID2060617 (Molecular Pharmacology Branch, DTP, NCI, 2025).

Tested on: 485368-065-R4-J2-PDC spheroids with HUVEC/MSC, viability
Test: Anticancer human tumor 485368-065-R4-J2-PDC patient-derived pancreatic carcinoma cell line growth inhibition [CLK]
Details: for IC50: curve of first compound; for viability, T/C: stronger effect = lower value
How it was run: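 Multi-cell-type spheroids combined patient-derived tumor cells with HUVEC endothelial cells and human mesenchymal stem cells. Paired agents were dosed in half-log steps down from about clinical Cmax, or from 10 microM where Cmax was unknown.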
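Also: spheroids exposed to compounds for seven days.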
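For viability, T/C in this document: 100% = DMSO vehicle control wells.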

O=C(c1cc(Cc2n[nH]c(=O)c3ccccc23)ccc1F)N1CCN(C(=O)C2CC2)CC1 + CN1CCN(c2cc(C(=O)Nc3cc4cc(-c5cnn(C)c5)ccc4cn3)ccn2)CC1
IC50 (second compound 0.0316 µM): > 10 µM
IC50 (second compound 0.1 µM): > 10 µM
IC50 (second compound 0.316 µM): 8.88 µM
IC50 (second compound 1 µM): < 0.0316 µM
IC50 (second compound 3.16 µM): < 0.0316 µM
IC50 (second compound 10 µM): < 0.0316 µM
viability, T/C (second compound 0.0316 µM, first compound 0.0316 µM): 92.6%
viability, T/C (second compound 0.0316 µM, first compound 0.1 µM): 111%
viability, T/C (second compound 0.0316 µM, first compound 0.316 µM): 106%
viability, T/C (second compound 0.0316 µM, first compound 1 µM): 110%
viability, T/C (second compound 0.0316 µM, first compound 3.16 µM): 105%
viability, T/C (second compound 0.0316 µM, first compound 10 µM): 82.6%
viability, T/C (second compound 0.1 µM, first compound 0.0316 µM): 107%
viability, T/C (second compound 0.1 µM, first compound 0.1 µM): 105%
viability, T/C (second compound 0.1 µM, first compound 0.316 µM): 105%
viability, T/C (second compound 0.1 µM, first compound 1 µM): 103%
viability, T/C (second compound 0.1 µM, first compound 3.16 µM): 105%
viability, T/C (second compound 0.1 µM, first compound 10 µM): 76%
viability, T/C (second compound 0.316 µM, first compound 0.0316 µM): 79%
viability, T/C (second compound 0.316 µM, first compound 0.1 µM): 79.9%
viability, T/C (second compound 0.316 µM, first compound 0.316 µM): 79.7%
viability, T/C (second compound 0.316 µM, first compound 1 µM): 81.1%
viability, T/C (second compound 0.316 µM, first compound 3.16 µM): 70.5%
viability, T/C (second compound 0.316 µM, first compound 10 µM): 47.5%
viability, T/C (second compound 1 µM, first compound 0.0316 µM): 1.08%
viability, T/C (second compound 1 µM, first compound 0.1 µM): 1.02%
viability, T/C (second compound 1 µM, first compound 0.316 µM): 1.67%
viability, T/C (second compound 1 µM, first compound 1 µM): 2.06%
viability, T/C (second compound 1 µM, first compound 3.16 µM): 2.06%
viability, T/C (second compound 1 µM, first compound 10 µM): 2.39%
viability, T/C (second compound 3.16 µM, first compound 0.0316 µM): 1.23%
viability, T/C (second compound 3.16 µM, first compound 0.1 µM): 1.3%
viability, T/C (second compound 3.16 µM, first compound 0.316 µM): 1.64%
viability, T/C (second compound 3.16 µM, first compound 1 µM): 2.47%
viability, T/C (second compound 3.16 µM, first compound 3.16 µM): 1.39%
viability, T/C (second compound 3.16 µM, first compound 10 µM): 3.02%
viability, T/C (second compound 10 µM, first compound 0.0316 µM): 1.53%
viability, T/C (second compound 10 µM, first compound 0.1 µM): 1.87%
viability, T/C (second compound 10 µM, first compound 0.316 µM): 2.81%
viability, T/C (second compound 10 µM, first compound 1 µM): 2.7%
viability, T/C (second compound 10 µM, first compound 3.16 µM): 2.29%
viability, T/C (second compound 10 µM, first compound 10 µM): 1.73%
